Source: patent US20070105810A1, “THERAPEUTICS” (priority 2003, published 2007)

Tested on: TMBP-GFP cells
Test: Intravital videomicroscopy: motility of TMBP-GFP cells in the spleen
Format: in vivo, rat
Settings: 3 d after T cell transfer, 6.5 μm/min in DMSO-treated controls, preliminary
Protocol: Intravital videomicroscopy of the spleen of vehicle (DMSO, left) A or BZ194 B-treated animals 3 d after T cell transfer. The ratio between stationary and motile MBP-specific GFP T cells (upper graphs) and cell trajectories (lower graphs, 10 min analysis) are shown. Stationary cells are defined as cells moving less than 10 μm in 10 minutes.
Animals were anesthetized by intraperitoneal injection of xylazine/ketamine (10 mg/kg and 50 mg/kg, respectively), with reapplied doses (1 mg/kg xylazine/5 mg/kg ketamine) administered as required. Adequate oxygenation was ensured by an oxygen (95% O2/5% CO2) mask fixed on the animal's snout. Body temperature was controlled by a heated pad. For spleen imaging temperature and moistness controlled chambers were constructed for inverted microscope settings. Surgically exposed spleens with intact vasculature were carefully placed into the chambers superfused with carbogenated HBSS (95% O25% CO2).
Time-lapse recordings were performed using an inverted microscope (Zeiss, Axiovert 200M) equipped with a 20×, 0.4 NA objective (Zeiss). Images were acquired using a Coolsnap-HQ camera (Photometrics, Roper Scientific, Tuscon, Ariz.) in 30 s time intervals and processed by MetaMorph (Visitron Systems, Puchheim, Germany). Image J software (freeware, provided by Wayne Rasband, NIH) was used to evaluate cell trajectories and velocity.

CCCCCCCCNC(=O)C[n+]1cccc(C(=O)O)c1.[Br-] [BZ194, 3-Carboxy-1-Octylcarbamoylmethyl-Pyridinium]
average velocity of TMBP-GFP cells: 3.5 μm/min
